# PMC5017989, “Anti-inflammatory and acetylcholinesterase activity of extract, fractions and five compounds isolated from the leaves and twigs of Artemisia annua growing in Cameroon” (SpringerPlus, 2016)
# Where two headings read alike, the source gives them in different places. Marks after values point to notes of the source that are not given here.
# How the values were obtained:
# [1] = in vitro; assay type: cell-based, murine; conditions: mouse, MTT, cells with LPS only = 100 %, read-out: % Cell viability
# Description: (§1) The RAW 264.7 macrophages cell line was purchased from the American Type Culture Collection (ATCC TIB-71, Rockville, MD, USA) and cultured in a plastic culture flask in DMEM containing L-glutamine supplemented with 10 % FCS and 1 % PSF solution at 37 °C with 5 % CO2. Cells were seeded (10^4 per well) in 96 well-microtitre plate and activated LPS alone (control) or with samples at different concentrations. Quercetin was used as a positive control (Mu et al. [2001]).
# (§2) The number of viable cells was determined as previously described by Mosmann ([1983]) on the macrophage cells with few modifications. Briefly, the cells were topped up with 200 µL DMEM after removal of media. 30 µL of 15 mg/mL MTT were added to each well and cells were incubated at 37 °C with 5 % CO2. The medium was aspirated after 2 h, and the formazan salt formed was dissolved using DMSO. The absorbance was read at 570 nm on a BioTek Synergy microplate reader. Cell viability percentage was then calculated with reference to the control (cells with LPS only considered as 100 % viable).
# [2] = test system: RAW 264.7 macrophages; test: in vitro; assay type: cell-based, murine; conditions: sample at 20 µg/mL; MTT; cells with LPS only = 100 %
# Description: as §1, §2
# [3] = test system: NO production in LPS-activated RAW 264.7 macrophages; test: Nitric oxide inhibitory activity in LPS-activated RAW 264.7 macrophages (Griess reagent); assay type: cell-based, murine; conditions: for inhibition at 0.5 µg/mL / inhibition at 2 µg/mL / inhibition at 5 µg/mL / inhibition at 20 µg/mL: Mus musculus, relative to LPS control; for inhibition at 0.5 µg/mL: RAW264.7, sample at 0.5 µg/mL; for inhibition at 2 µg/mL: RAW264.7, sample at 2 µg/mL; for inhibition at 5 µg/mL: RAW264.7, sample at 5 µg/mL; for inhibition at 20 µg/mL: RAW264.7, sample at 20 µg/mL; for NO: LPS-activated RAW 264.7
# Description: Compounds were assayed for their potential to inhibit the NO production in macrophage cells.
# as §1
# The amount of nitric oxide released was determined by the Griess reagent as reported previously (Dzoyem et al. [2015]).
# [4] = molecular target: acetylcholinesterase (Electrophorus electricus, UniProt O42275); test: biochemical
# acetylcholinesterase, sequence (O42275 24-633): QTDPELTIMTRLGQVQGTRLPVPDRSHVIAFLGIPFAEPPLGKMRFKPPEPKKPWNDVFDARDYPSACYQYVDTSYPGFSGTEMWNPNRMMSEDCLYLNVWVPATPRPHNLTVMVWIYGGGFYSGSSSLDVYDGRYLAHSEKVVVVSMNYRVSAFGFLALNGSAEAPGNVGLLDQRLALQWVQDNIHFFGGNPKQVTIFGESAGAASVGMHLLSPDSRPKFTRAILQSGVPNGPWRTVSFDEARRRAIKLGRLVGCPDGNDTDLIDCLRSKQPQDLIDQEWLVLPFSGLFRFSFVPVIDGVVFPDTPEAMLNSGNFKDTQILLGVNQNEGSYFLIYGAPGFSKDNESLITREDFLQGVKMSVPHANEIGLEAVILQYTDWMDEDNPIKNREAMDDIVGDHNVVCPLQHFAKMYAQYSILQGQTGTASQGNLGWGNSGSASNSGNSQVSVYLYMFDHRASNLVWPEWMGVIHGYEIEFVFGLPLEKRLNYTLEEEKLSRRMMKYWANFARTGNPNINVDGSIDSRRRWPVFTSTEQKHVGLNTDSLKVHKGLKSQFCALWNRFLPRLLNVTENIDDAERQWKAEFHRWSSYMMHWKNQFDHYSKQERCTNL
SMILES,viability ([1]; sample at 0.5 µg/mL),viability ([1]; sample at 2 µg/mL),viability ([1]; sample at 5 µg/mL),viability ([1]; sample at 20 µg/mL),% Cell viability [2],inhibition at 0.5 µg/mL [3],inhibition at 2 µg/mL [3],inhibition at 5 µg/mL [3],inhibition at 20 µg/mL [3],NO ([3]; sample at 0.5 µg/mL),NO ([3]; sample at 2 µg/mL),NO ([3]; sample at 5 µg/mL),NO ([3]; sample at 20 µg/mL),inhibition at 100 µg/mL [4],% Inhibition (acetylcholinesterase) ([4]; single concentration of 100 µg/mL (compounds and galantamine))
"COc1cc2ccc(=O)oc2cc1O [Compound 2, scopoletin]",80.3 ± 8.56%,69.9 ± 9.23%,88.5 ± 1.19%,81.6 ± 4.35%,without obvious cytotoxic effect,65.5 ± 4.41%,72 ± 4.22%,77.7 ± 2.09%,98.46 ± 0.79%,2.65 ± 0.34 µM,2.15 ± 0.32 µM,1.71 ± 0.16 µM,0.12 ± 0.06 µM,56.3 ± 4.92%,–
"COc1cc(-c2oc3cc(OC)c(OC)c(O)c3c(=O)c2OC)ccc1O [Compound 3, chrysosplenetin]",95.6 ± 4.88%,67.4 ± 3.74%,28.5 ± 2.18%,15.9 ± 2.37%,–,37.7 ± 2.88%,81.7 ± 1.04%,98.6 ± 1.67%,> 100%,4.79 ± 0.22 µM,1.41 ± 0.08 µM,0.10 ± 0.13 µM,-0.32 ± 0.02 µM,80 ± 9.67%,–
"COc1ccc(-c2oc3cc(OC)c(OC)c(O)c3c(=O)c2O)cc1O [Compound 4, eupatin]",79.3 ± 5.34%,48.5 ± 3.88%,17.6 ± 1.66%,7.49 ± 0.62%,–,83.4 ± 1.96%,97.9 ± 1.08%,97.8 ± 6.28%,> 100%,1.27 ± 0.15 µM,0.16 ± 0.08 µM,0.17 ± 0.48 µM,-0.20 ± 0.02 µM,–,58.22 ± 2.73^b %
"O=c1c(O)c(-c2ccc(O)c(O)c2)oc2cc(O)cc(O)c12 [Quercetin, reference compound]",105 ± 6.13%,98.3 ± 5.17%,76.2 ± 2.06%,23.1 ± 5.37%,–,34.9 ± 2.76%,43 ± 3.89%,85.7 ± 2.34%,103 ± 1.08%,5.01 ± 1.67 µM,4.38 ± 0.30 µM,1.10 ± 0.18 µM,–,–,–
"C[C@@H]1CC[C@H]2[C@@H](C)C(=O)O[C@@H]3O[C@@]4(C)CC[C@@H]1[C@]32OO4 [Compound 1, artemisinin]",110 ± 6.22%,104 ± 9.66%,91.3 ± 2.2%,80.9 ± 1.71%,without obvious cytotoxic effect,56.3 ± 14.4%,83.1 ± 9.72%,89.1 ± 7.05%,99.2 ± 2.16%,3.36 ± 1.10 µM,1.30 ± 0.75 µM,0.84 ± 0.54 µM,0.07 ± 0.17 µM,71.7 ± 7.9%,–
